For data set [1], the target named is T1, PDEδ (Homo sapiens, UniProt O43924). The data set can be described thus: PDEδ levels by Western blot in Jurkat cells. The class given is cell-based. Also on record: endogenous in cells; host or cells: Jurkat. As to conditions: for remaining activity at 10 µM: Jurkat, 6 h, DMSO pretreatment 2 h, then 10 μM, 6h, read-out: PDEδ/Vinculin intensity (relative to DMSO control group). (A western blot detects proteins with antibodies after separation by electrophoresis.)

The target in data set [2] is T1, PDEδ. The experiment in a line: PDEδ levels by Western blot in Dox-inducible DDB1 knockout KBM7 cells. Particulars: 5 (10 μM) 8 h, Supplementary Fig. 4f. The class given is cell-based. Also on record: endogenous in cells; host or cells: Dox-inducible DDB1-knockout KBM7. Here is the method:
(§1) Cells were washed with PBS and lysed in lysis buffer (50 mM Tris-HCl, pH 7.4, 150 mM NaCl, 1% Triton X-100, 1% sodium deoxycholate, 0.1% SDS) with complete protease inhibitor cocktail (Roche, 11836170001) for 30 min on ice. For Ramos cells, cell pellets were lysed in lysis buffer (50 mM Tris-HCl, pH 8, 150 mM NaCl, 1% NP-40, 0.5% sodium deoxycholate) with complete protease inhibitor cocktail. After centrifugation at 16,000 x g, the supernatant was transferred into a new tube and the protein concentration was determined by DC protein assay (BIO-RAD, 5000116). Proteins were separated by SDS-PAGE and transferred to a PVDF membrane (Thermo scientific, 0.45 μm, 88518). For PDEδ, BRD2, GAPDH, BRD4, Vinculin and BTK, the membranes were blocked with Intercept® Blocking Buffer (LI-COR Biosciences, 927-70001) at room temperature for 1 h. The primary antibodies for these proteins were diluted with Intercept® Blocking Buffer (1:500 for PDEδ, 1:3000 for Vinculin, and 1:1000 for other proteins) and incubated with the membranes overnight at 4 °C. Membranes were washed with PBS + 0.1% Tween 20 (PBS-T) five times and incubated with secondary antibodies conjugated to IRDye® Infrared Fluorescent Dyes (1:5000, LI-COR Biosciences) at room temperature for 1 h with protection from light. […] Relative band intensities were quantified using Image Lab (BIO-RAD).

Data set [3] deals with PDE6D mRNA. The data set can be described thus: RT-qPCR of PDE6D mRNA in Jurkat cells. As to conditions: for PDE6D mRNA level (relative to DMSO control group): 6 h, Supplementary Fig. 1f. The class given is cell-based. Here is the method:
Jurkat cells were grown in 12-well plates and treated with compounds for the indicated time. RNA was extracted using the RNeasy Plus Mini Kit (QIAGEN, 74134), and DNA was removed by DNase digestion with RNase-free DNase Set (QIAGEN, 79256). cDNA was synthesized using the QuantiTect Reverse Transcription Kit (QIAGEN, 205313). The mRNA expression level was evaluated with the QuantiFast SYBR Green PCR Kit (Qiagen, 330502), using the CFX96 Real-Time PCR Detection System (BIO-RAD Laboratories), and relative expression levels were calculated using the ΔΔCt method using GAPDH as reference[45] and analyzed in GraphPad Prism 9.0. The sequences of the primers for PDE6D were 5’-[…]-3’ (forward) and 5’-[…]-3’ (reverse). For GAPDH, the sequences were 5’-[…]-3’ (forward) and 5’-[…]-3’ (reverse). For BRD2, the sequences were 5’-[…]-3’ (forward), 5’-[…]-3’ (reverse). For BRD3, the sequences were 5’-[…]-3’ (forward), 5’-[…]-3’ (reverse). For BRD4, the sequences were 5’-[…]-3’ (forward), 5’-[…]-3’ (reverse). These primers were synthesized by Sigma-Aldrich.
On the technique in general: Quantitative PCR measures a nucleic acid by following its amplification.

Data set [4] addresses T1, PDEδ. The data set can be described thus: PDEδ levels by Western blot in HEK293T, HAP1 and LC3B knockout HAP1 cells. It counts as cell-based. Also noted: endogenous in cells; host or cells: HEK293T; HAP1 and LC3B-knockout HAP1. Here is the method:
as §1

Data set [5] has as its target LC3B (Homo sapiens, UniProt Q9GZQ8). The data set can be described thus: Thermal shift assay with LC3B. It counts as binding. Particulars: 15 µM LC3B; 60 µM compound; Glo-Melt dye. The procedure: For thermal shift analysis, 15 µM of human LC3B was dispensed into 384-well plates (Hard-Shell 384-well 480 PCR plates, BioRAD #HSR4805) in buffer (50 mM Tris/HCl pH 7.4, 100 mM NaCl, 1 mM GSH and 0.02% CHAPS) with a Certus Flex liquid dispenser (Gyger). 60 µM compounds in DMSO (n4 or DMSO (0.6%) as control were added with an Echo 520 acoustic liquid handler (Labcyte). Glo-Melt dye was added (final concentration: 1/100), plates sealed with Lightcycler 480 Sealing Foils (Roche, #04 729 757 001) and mixed by short centrifugation (1 min, 60 g and room temeprature). A Lightcycler 480 II (Roche) was used for thermal shift curves with a temperature gradient from 20 to 95 °C according to the manufacturer´s protocol. Protein melting curves were analyzed, and the difference in meting temperature (ΔTm) was calculated with LightCycler Thermal Shift Analysis software (ROCHE) and visualized by Graphpad Prism (Version 9.5.1).

The target of data set [6] is BRD2 (Homo sapiens, UniProt P25440). The experiment in a line: BRD2 levels by Western blot in Hep G2 and MDA-MB-231 cells (incl. RNA interference). It counts as cell-based. Also on record: endogenous in cells; host or cells: Hep G2; MDA-MB-231. As to conditions: Hep G2 cells; 30 μM 15 for 1 h, then 10 μM 9 for 4 h. The procedure:
Cells were washed with PBS and lysed in lysis buffer (50 mM Tris-HCl, pH 7.4, 150 mM NaCl, 1% Triton X-100, 1% sodium deoxycholate, 0.1% SDS) with complete protease inhibitor cocktail (Roche, 11836170001) for 30 min on ice. For Ramos cells, cell pellets were lysed in lysis buffer (50 mM Tris-HCl, pH 8, 150 mM NaCl, 1% NP-40, 0.5% sodium deoxycholate) with complete protease inhibitor cocktail. After centrifugation at 16,000 x g, the supernatant was transferred into a new tube and the protein concentration was determined by DC protein assay (BIO-RAD, 5000116). Proteins were separated by SDS-PAGE and transferred to a PVDF membrane (Thermo scientific, 0.45 μm, 88518). For PDEδ, BRD2, GAPDH, BRD4, Vinculin and BTK, the membranes were blocked with Intercept® Blocking Buffer (LI-COR Biosciences, 927-70001) at room temperature for 1 h. The primary antibodies for these proteins were diluted with Intercept® Blocking Buffer (1:500 for PDEδ, 1:3000 for Vinculin, and 1:1000 for other proteins) and incubated with the membranes overnight at 4 °C. Membranes were washed with PBS + 0.1% Tween 20 (PBS-T) five times and incubated with secondary antibodies conjugated to IRDye® Infrared Fluorescent Dyes (1:5000, LI-COR Biosciences) at room temperature for 1 h with protection from light. After washing the membrane, signals were visualized using the ChemiDoc MP Imaging System (BIO-RAD Laboratories). For detection of LC3B, BRD3, BLK, DCAF11, DDB1 RBX1, FIP200, V5- and FLAG-Tag the membranes were blocked with 5% milk in PBS-T at room temperature for 1 h. The primary antibodies for these proteins were diluted in 5% milk in PBS-T buffer (1:200 for BRD3, 1:1000 for other proteins) and incubated with the membranes overnight at 4 °C. Membranes were washed with PBS-T five times and incubated with HRP secondary antibodies (1:1500) at room temperature for 1 h. After washing the membrane, protein detection was performed using Western blotting detection reagent (Thermo Scientific, 34095) and the ChemiDoc MP Imaging System (BIO-RAD). Relative band intensities were quantified using Image Lab (BIO-RAD).

A short description of data set [7]: Cell viability assay (CellTiter-Glo) in Jurkat cells. It counts as cell-based. As to conditions: human, Jurkat cells. The procedure: (§2) Jurkat cells (3 × 10^3) and Hep G2 cells (3.5 × 10^3) were seeded in 96-well plates in 100 μL culture medium. Cells were treated with compounds dissolved in 50 μl medium at the indicated concentration for 72 h, at the same time, one plate of cells without compounds treatment was used for the cell count at time zero. After adding 40 μl of CellTiter-Glo® reagent (Promega, G7571) to each well for 10 min at room temperature, the luminescence was measured on a Spark® Multimode Microplate Reader (Tecan). The data was analyzed by the GraphPad Prism 9.0.
Background: ATP-based viability assays read luminescence as a measure of living cells.

Data set [8] deals with Jurkat cells. The data set is described as above. It counts as cell-based. Particulars: for Relative cell viability (%): Fig. 4k; for Cell viability (%) relative to DMSO: individual replicates, Supplementary Fig. 7g. Here is the method:
as §2

In data set [9] the test system is Hep G2 cells. The data set can be described thus: Cell viability assay (CellTiter-Glo) in Hep G2 cells. The class given is cell-based. As to conditions: Homo sapiens, HepG2, 72 h. Here is the method:
as §2

Several values for one entry are separate records, joined by “and”; a condition that tells them apart may be missing. Identical values can stand only once. Like-named read-outs stand apart in the source and are kept apart here.

From paper PMC10689823, “Discovery of a Drug-like, Natural Product-Inspired DCAF11 Ligand Chemotype” (Nature Communications, 2023) come the findings set out here.

In general, viability refers to the share of living cells, or the viability signal relative to a control. For orientation: GI50 means the concentration that inhibits growth by half. Low values mean greater sensitivity of the cells, high ones lower sensitivity of the cells.

T1 sequence (O43924 whole entry): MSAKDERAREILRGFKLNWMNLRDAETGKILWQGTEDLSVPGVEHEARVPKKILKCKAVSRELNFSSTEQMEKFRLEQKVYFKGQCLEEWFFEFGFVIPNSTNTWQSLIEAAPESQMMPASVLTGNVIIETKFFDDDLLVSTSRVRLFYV
BRD2, sequence (P25440 whole entry): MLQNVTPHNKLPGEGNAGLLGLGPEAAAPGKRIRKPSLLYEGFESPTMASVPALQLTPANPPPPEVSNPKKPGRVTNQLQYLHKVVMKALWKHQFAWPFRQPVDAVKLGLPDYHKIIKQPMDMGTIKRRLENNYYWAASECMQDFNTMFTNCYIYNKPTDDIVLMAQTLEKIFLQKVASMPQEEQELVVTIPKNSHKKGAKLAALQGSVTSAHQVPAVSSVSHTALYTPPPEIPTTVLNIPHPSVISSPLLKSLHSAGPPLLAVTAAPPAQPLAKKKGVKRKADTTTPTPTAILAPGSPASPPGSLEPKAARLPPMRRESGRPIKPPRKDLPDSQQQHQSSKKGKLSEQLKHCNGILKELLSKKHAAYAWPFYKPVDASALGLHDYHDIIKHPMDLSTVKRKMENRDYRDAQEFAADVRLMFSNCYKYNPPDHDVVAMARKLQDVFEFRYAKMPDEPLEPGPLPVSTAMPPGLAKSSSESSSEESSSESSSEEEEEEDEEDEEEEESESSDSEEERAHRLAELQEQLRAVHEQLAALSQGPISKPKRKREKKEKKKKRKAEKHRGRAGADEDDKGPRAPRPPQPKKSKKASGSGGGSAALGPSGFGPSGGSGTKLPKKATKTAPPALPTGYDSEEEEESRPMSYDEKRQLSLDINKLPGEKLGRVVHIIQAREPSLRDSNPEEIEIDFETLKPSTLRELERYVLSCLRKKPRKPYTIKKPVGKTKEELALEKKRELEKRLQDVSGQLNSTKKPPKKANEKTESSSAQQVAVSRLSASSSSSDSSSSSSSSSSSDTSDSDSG

As to `Cc1ccc(-n2nc3c(=O)n(CCCC(=O)NCCc4ccc(C(=O)NCCOCCOCCOCCOc5c(Br)cc(/C=C6\C(=O)Nc7ccc(Br)cc76)cc5Br)cc4)nc(C)c3c2C)cc1` [Compound 5], in data set [1] (10 µM, 18 h incubation), the PDEδ degradation result is reported as “ca. 75%”. Further, the remaining activity at 10 µM in [1] (Fig. 1g) turned out to be 43.9%; in [1] (Fig. 1d), 44.2%. Moreover, the “hook effect in PDEδ degradation” value in data set [1] (up to 10 µM concentration) is reported as “no hook effect”. In addition, the “PDEδ protein level (relative to DMSO control group)” value in data set [2] (Dox-inducible DDB1 knockout KBM7 cells pretreated with 0.5 ug/mL Dox for 3 days) was “abolished”; in [2] (Dox-inducible DDB1 knockout KBM7 cells, no Dox (DMSO)), 44.238 and 44.9587 and 52.5197 and 56.1328. For the same compound, the “PDE6D mRNA level (relative to DMSO control group)” value in [3] (3 μM) was 141.721 and 114.564 and 90.7441; in data set [3] (10 μM), 145.389 and 133.515 and 106.183. For the same compound, the “PDEδ mRNA levels (in words)” value in [3] (6 h treatment) is “no reduction in mRNA levels”. For the same compound, in data set [4] (5 μM or 10 μM), the “PDEδ degradation in HEK293T and HAP1 cell lines” value was “degraded”. For the same compound, in [4] (LC3B knockout HAP1 cells), the “PDEδ degradation in LC3B knockout HAP1 cells” value was “induced PDEδ degradation”. Further, in [5], the “change of melting temperature of LC3B (ΔTm)” value is “did not change the thermal stability”.

As for `COCCCN(C(=O)CCl)C(C(=O)NCc1ccccc1)c1ccc(Cl)c(Cl)c1` (centres unmarked) [Compound 15, reference compound], in data set [6], the “effect of pretreatment on BRD2 degradation by 9” value is on record as “impaired the degradation of BRD2”. The viability at 72 h, 10 nmol/L in data set [7] (concentration 10 nmol/L, individual replicates, Supplementary Fig. 7g, read-out: Cell viability (%) relative to DMSO) came to 90.9%. Further, the viability at 72 h, 30 nmol/L in data set [7] (concentration 30 nmol/L, individual replicates, Supplementary Fig. 7g, read-out: Cell viability (%) relative to DMSO) was found to be 89%. The viability at 72 h, 0.01 µM in data set [7] (72 h, 10 nM, Fig. 4k, read-out: Relative cell viability (%)) is 98.2%. Moreover, the viability at 72 h, 0.03 µM in [7] (72 h, 30 nM, Fig. 4k, read-out: Relative cell viability (%)) came out at 95.3%. Moreover, the viability at 72 h, 0.1 µM in data set [7] (72 h, 100 nM, Fig. 4k, read-out: Relative cell viability (%)) is 97.5%. Also, the viability at 72 h, 0.3 µM in [7] (72 h, 300 nM, Fig. 4k, read-out: Relative cell viability (%)) came out at 89.8%. For the same compound, the viability at 72 h, 1 µM in data set [7] (72 h, 1000 nM, Fig. 4k, read-out: Relative cell viability (%)) worked out at 69.4%. Moreover, the 50% growth inhibitory concentration (GI50) in [8] (Homo sapiens, Jurkat cells, 72 h) came out at 1.7 ± 0.2 µM; in data set [9], 6.5 ± 1.8 µM. Moreover, the “Relative cell viability (%)” value in [8] (Jurkat cells, 72 h, 10 nM, 0.01 µM) was 107.976% and 98.062%; in [8] (Jurkat cells, 72 h, 30 nM, 0.03 µM), 111.548% and 108.416%; in data set [8] (Jurkat cells, 72 h, 100 nM, 0.1 µM), 104.746% and 97.0657%; in data set [8] (Jurkat cells, 72 h, 300 nM, 0.3 µM), 101.886% and 95.5624%; in [8] (Jurkat cells, 72 h, 1000 nM, 1 µM), 76.2485% and 79.6366%; in data set [8] (Jurkat cells, 72 h, 3000 nM, 3 µM), -0.04609% and 0.01061% and 0.06492%. Besides, the “Relative cell viability (%)” value was -0.2034% and -0.1473% and -0.1406% in data set [8] (Jurkat cells, 72 h, 10000 nM, 10 µM); -0.2515% and -0.2135% and -0.2133% in [8] (Jurkat cells, 72 h, 30000 nM, 30 µM). The “Cell viability (%) relative to DMSO” value in data set [8] (concentration 10 nmol/L) is 93.1923% and 103.02%; in [8] (concentration 30 nmol/L) it was 89.995% and 103.027%; in data set [8] (concentration 100 nmol/L) it was 81.9055% and 90.259% and 101.913%; in data set [8] (concentration 300 nmol/L), 82.6491% and 87.803% and 104.249%; in data set [8] (concentration 1000 nmol/L) it was 80.0935% and 85.5797% and 108.086%; in data set [8] (concentration 3000 nmol/L), 49.5057% and 68.1876% and 85.0918%. Further, the “Cell viability (%) relative to DMSO” value was 0.002496% and -0.07521% and -0.05875% in data set [8] (concentration 10000 nmol/L); -0.1172% and -0.221% and -0.2298% in data set [8] (concentration 30000 nmol/L).
